Test [1] addresses T1, furin (endogenous protease) in U20S cells (Homo sapiens, UniProt P09958).
T1 construct: the endogenous protease cleaves GFP; endogenous in cells; host or cells: U2OS cells transduced with a BacMam reporter
As to the kind of experiment: Furin cell-based assay (image-based, Golgi-targeted GFP with BMP10 furin/PCSK cleavage site).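 Also: Read-out is mean GFP fluorescence of Golgi puncta per cell by high-content imaging, retained when furin inhibited, over an eleven-point 0.00017–10 µM series, four-parameter fit.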 Particulars: 24-hour incubation, read-out: furin golgi cell pXC50 (converted).

In test [2] the target is T2, Furin (108-574-Tev-Flag-His) enzyme (Homo sapiens, UniProt P09958).
T2 construct: Furin (108-574-Tev-Flag-His) enzyme was expressed and purified from CHO cells; TEV cleavage site (C); FLAG (C); His (C); made in house; host or cells: CHO cells
As to the kind of experiment: Furin enzyme assay. Format: biochemical. As to conditions: for IC50: read-out: furin enzyme pIC50 (converted). The method in brief: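 CHO-expressed, purified furin construct at 40 pM in 100 mM HEPES pH7.5, 1 mM CaCl2, 0.005% Triton X-100. Eleven-point 1:3 series, 0.00017–10 μM final, incubated 2 h at room temperature and read on Envision. pXC50 from four-parameter fit.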

Where only a bound is given, the exact number is not on record here.

T2 sequence (P09958 108-574): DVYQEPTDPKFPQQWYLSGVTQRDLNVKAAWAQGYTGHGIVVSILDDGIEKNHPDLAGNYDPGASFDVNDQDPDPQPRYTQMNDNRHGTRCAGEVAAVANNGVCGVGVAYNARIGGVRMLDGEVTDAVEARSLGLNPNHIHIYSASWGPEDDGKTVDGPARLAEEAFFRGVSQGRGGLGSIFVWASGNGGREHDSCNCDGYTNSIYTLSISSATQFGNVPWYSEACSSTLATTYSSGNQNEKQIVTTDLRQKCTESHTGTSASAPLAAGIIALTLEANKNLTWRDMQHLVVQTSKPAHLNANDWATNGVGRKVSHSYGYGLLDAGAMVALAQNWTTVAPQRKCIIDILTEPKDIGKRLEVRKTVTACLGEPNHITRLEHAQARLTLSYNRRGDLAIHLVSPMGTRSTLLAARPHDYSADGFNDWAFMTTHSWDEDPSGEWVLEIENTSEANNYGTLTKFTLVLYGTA
T1 sequence (P09958 108-794): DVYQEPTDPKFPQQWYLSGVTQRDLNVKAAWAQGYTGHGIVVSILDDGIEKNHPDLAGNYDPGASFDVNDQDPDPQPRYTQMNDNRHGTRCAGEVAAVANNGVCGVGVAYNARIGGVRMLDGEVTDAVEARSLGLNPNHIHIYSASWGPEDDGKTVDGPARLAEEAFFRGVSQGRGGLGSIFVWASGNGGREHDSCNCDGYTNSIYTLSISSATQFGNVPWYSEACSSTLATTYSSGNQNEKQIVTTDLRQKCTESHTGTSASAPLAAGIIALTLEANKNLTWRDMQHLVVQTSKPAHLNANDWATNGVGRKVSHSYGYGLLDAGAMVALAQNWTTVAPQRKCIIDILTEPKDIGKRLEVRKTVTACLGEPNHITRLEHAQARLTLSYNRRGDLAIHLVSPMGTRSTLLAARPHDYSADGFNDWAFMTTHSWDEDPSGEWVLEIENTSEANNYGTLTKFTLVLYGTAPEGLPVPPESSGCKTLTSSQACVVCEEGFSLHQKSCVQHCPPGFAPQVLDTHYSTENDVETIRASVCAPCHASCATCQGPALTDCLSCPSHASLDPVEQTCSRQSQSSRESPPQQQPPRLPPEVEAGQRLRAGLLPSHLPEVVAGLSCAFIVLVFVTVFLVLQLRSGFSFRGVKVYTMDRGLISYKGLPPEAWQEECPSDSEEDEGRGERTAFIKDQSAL

With `O=C(O)CC1CCN(Cc2cc(Oc3cnc(N4CC5CNCC5C4)nc3)nc(-c3cc(Cl)cc(Cl)c3)c2)CC1` (centres unmarked) [Example 161, 2-(1-((2-(3,5-dichlorophenyl)-6-((2-(hexahydropyrrolo[3,4-c]pyrrol-2(1H)-yl)pyrimidin-5-yl)oxy)pyridin-4-yl)methyl)piperidin-4-yl)acetic acid], the EC50 in test [1] is 39.8 nM. In test [2], the “furin enzyme pIC50” value is 8.3.

`O=C(O)CC1CCN(Cc2cc(Oc3cnc(N4CC5CC(C4)N5)nc3)nc(-c3cc(Cl)cc(Cl)c3)c2)CC1` [Example 162, 2-(1-((2-((2-(3,6-diazabicyclo[3.1.1]heptan-3-yl)pyrimidin-5-yl)oxy)-6-(3,5-dichlorophenyl)pyridin-4-yl)methyl)piperidin-4-yl)acetic acid]: the EC50 in test [1] was 79.4 nM. The “furin enzyme pIC50” value in test [2] came out at 8.4.

As to `O=C(O)CC1CCN(Cc2cc(Oc3cnc(N4CC5CCC(C4)N5)nc3)nc(-c3cc(Cl)cc(Cl)c3)c2)CC1` [Example 163, 2-(1-((2-((2-(3,8-diazabicyclo[3.2.1]octan-3-yl)pyrimidin-5-yl)oxy)-6-(3,5-dichlorophenyl)pyridin-4-yl)methyl)piperidin-4-yl)acetic acid], the EC50 in test [1] is 10 nM. Moreover, the “furin enzyme pIC50” value in test [2] came out at 8.7.

With `O=C(O)CC1CCN(Cc2cc(Oc3cnc(N4CCNC5(CC5)C4)nc3)nc(-c3cc(Cl)cc(Cl)c3)c2)CC1` [Example 164, 2-(1-((2-((2-(4,7-diazaspiro[2.5]octan-7-yl)pyrimidin-5-yl)oxy)-6-(3,5-dichlorophenyl)pyridin-4-yl)methyl)piperidin-4-yl)acetic acid], the EC50 in test [1] is 25.1 nM. For the same compound, in test [2], the IC50 was 3.98 nM.

For `NC1(CO)CCN(c2ncc(Oc3cc(CN4CCC(CC(=O)O)CC4)cc(-c4cc(Cl)cc(Cl)c4)n3)cn2)CC1` [Example 165, 2-(1-((2-((2-(4-amino-4-(hydroxymethyl)piperidin-1-yl)pyrimidin-5-yl)oxy)-6-(3,5-dichlorophenyl)pyridin-4-yl)methyl)piperidin-4-yl)acetic acid], in test [1], the EC50 is 31.6 nM. Besides, the “furin enzyme pIC50” value in test [2] came to 8.4.

Take `O=C(O)CC1CCN(Cc2cc(Oc3ccc(N4CCCNCC4)nc3)nc(-c3cc(Cl)cc(Cl)c3)c2)CC1` [Example 166, 2-(1-((2-((6-(1,4-Diazepan-1-yl)pyridin-3-yl)oxy)-6-(3,5-dichlorophenyl)pyridin-4-yl)methyl)piperidin-4-yl)acetic acid]: in test [1], the EC50 was 63.1 nM. For the same compound, the “furin enzyme pIC50” value in test [2] amounted to 8.5.

`CC(=O)NCC1CCN(Cc2cc(Oc3cnc(N4CCN(CCS(C)(=O)=O)CC4)nc3)cc(-c3cc(Cl)cc(Cl)c3)c2)CC1` [Example 167, N-((1-((3′,5′-Dichloro-5-((2-(4-(2-(methylsulfonyl)ethyl)piperazin-1-yl)pyrimidin-5-yl)oxy)-[1,1′-biphenyl]-3-yl)methyl)piperidin-4-yl)methyl)acetamide]: the EC50 in test [1] is 50.1 nM. In test [2], the “furin enzyme pIC50” value was 8.3.

Turning to `CC(=O)NCC1CCN(Cc2cc(Oc3cnc(N4CCN(CCC(=O)O)CC4)nc3)cc(-c3cc(Cl)cc(Cl)c3)c2)CC1` [Example 168, 3-(4-(5-((5-((4-(Acetamidomethyl)piperidin-1-yl)methyl)-3′,5′-dichloro-[1,1′-biphenyl]-3-yl)oxy)pyrimidin-2-yl)piperazin-1-yl)propanoic acid], in test [1], the EC50 is 25.1 nM. Further, the “furin enzyme pIC50” value in test [2] worked out at 9.3.

`CC(=O)NCC1CCN(Cc2cc(Oc3ccc(N4CCN(CCC(=O)O)CC4)nn3)nc(-c3cc(Cl)cc(Cl)c3)c2)CC1` [Example 169, 3-(4-(6-((4-((4-(acetamidomethyl)piperidin-1-yl)methyl)-6-(3,5-dichlorophenyl)pyridin-2-yl)oxy)pyridazin-3-yl)piperazin-1-yl)propanoic acid]: in test [1], the EC50 was 1260 nM. In addition, in test [2], the IC50 is 0.0316 nM.

For the compound `CC(=O)NCC1CCN(Cc2cc(Oc3cnc(N4CCN(CCC(N)=O)CC4)nc3)cc(-c3cc(Cl)cc(Cl)c3)c2)CC1` [Example 170, 3-(4-(5-((5-((4-(acetamidomethyl)piperidin-1-yl)methyl)-3′,5′-dichloro-[1,1′-biphenyl]-3-yl)oxy)pyrimidin-2-yl)piperazin-1-yl)propanamide], the EC50 in test [1] is 12.6 nM. The IC50 in test [2] is 0.794 nM.

As to `CNC(=O)NCC1CCN(Cc2cc(Oc3cnc(N4CCN(CCCO)CC4)nc3)nc(-c3cc(Cl)cc(Cl)c3)c2)CC1` [Example 171, 1-((1-((2-(3,5-dichlorophenyl)-6-((2-(4-(3-hydroxypropyl)piperazin-1-yl)pyrimidin-5-yl)oxy)pyridin-4-yl)methyl)piperidin-4-yl)methyl)-3-methylurea], the EC50 in test [1] was 2 nM. Moreover, the “furin enzyme pIC50” value in test [2] is 10.7.

`CC(=O)NCC1CCN(Cc2cc(Oc3cnc(N4CCN(CCC5(C(=O)O)CC5)CC4)nc3)nc(-c3cc(Cl)cc(Cl)c3)c2)CC1` [Example 173, 1-(2-(4-(5-((4-((4-(acetamidomethyl)piperidin-1-yl)methyl)-6-(3,5-dichlorophenyl)pyridin-2-yl)oxy)pyrimidin-2-yl)piperazin-1-yl)ethyl)cyclopropanecarboxylic acid]: the EC50 in test [1] was 1.26 nM. Further, in test [2], the IC50 was 0.398 nM.

`CC(=O)NCC1CCN(Cc2cc(Oc3ccc(N4CCN(CCC(C)C(=O)O)CC4)nc3)nc(-c3cc(Cl)cc(Cl)c3)c2)CC1` (centres unmarked) [Example 174, 4-(4-(5-((4-((4-(acetamidomethyl)piperidin-1-yl)methyl)-6-(3,5-dichlorophenyl)pyridin-2-yl)oxy)pyridin-2-yl)piperazin-1-yl)-2-methylbutanoic acid]: the EC50 in test [1] is 20 nM. Moreover, the “furin enzyme pIC50” value in test [2] is 9.2.

Turning to `COC(=O)NC(=O)CCN1CCN(c2ccc(Oc3cc(CN4CCC(CNC(C)=O)CC4)cc(-c4cc(Cl)cc(Cl)c4)n3)cn2)CC1` [Example 176, methyl (3-(4-(5-((4-((4-(acetamidomethyl)piperidin-1-yl)methyl)-6-(3,5-dichlorophenyl)pyridin-2-yl)oxy)pyridin-2-yl)piperazin-1-yl)propanoyl)carbamate], in test [1], the EC50 is 3.98 nM. The “furin enzyme pIC50” value in test [2] came to 9.

Turning to `O=C(O)CC1CCN(Cc2cc(Oc3cnc(N4CCN(CC(O)CO)CC4)nc3)nc(-c3cc(Cl)cc(Cl)c3)c2)CC1` (centres unmarked) [Example 177, 2-(1-((2-(3,5-dichlorophenyl)-6-((2-(4-(2,3-dihydroxypropyl)piperazin-1-yl)pyrimidin-5-yl)oxy)pyridin-4-yl)methyl)piperidin-4-yl)acetic acid], the EC50 in test [1] is 20 nM. For the same compound, in test [2], the “furin enzyme pIC50” value amounted to 9.2.

Regarding `CC(=O)NCC1CCN(Cc2cc(Oc3ccc(N4CC[N+](C)(O)CC4)nc3)nc(-c3cc(Cl)cc(Cl)c3)c2)CC1` [Example 178, 4-(5-((4-((4-(Acetamidomethyl)piperidin-1-yl)methyl)-6-(3,5-dichlorophenyl)pyridin-2-yl)oxy)pyridin-2-yl)-1-methylpiperazine1-oxide], the EC50 in test [1] was less than 2.51 nM. Besides, in test [2], the “furin enzyme pIC50” value is on record as 8.9.

As for `CC(=O)NCC1CCN(Cc2cc(Oc3ccc(N4CC[N+](CCO)(CCO)CC4)nc3)nc(-c3cc(Cl)cc(Cl)c3)c2)CC1` [Example 179, 1-(4-(5-((4-((4-(Acetamidomethyl)piperidin-1-yl)methyl)-6-(3,5-dichlorophenyl)pyridin-2-yl)oxy)pyridin-2-yl)-1-(2-hydroxyethyl)piperazin-1-ium-1-yl)-2-hydroxyethan-1-ide], the EC50 in test [1] is 12.6 nM. For the same compound, the “furin enzyme pIC50” value in test [2] stood at 8.8.

On to `CC(=O)NCC1CCN(Cc2cc(Oc3ccc(N4CC[N+](C)(C)CC4)nc3)nc(-c3cc(Cl)cc(Cl)c3)c2)CC1.[Cl-]` [Example 181, 4-(5-((4-((4-(Acetamidomethyl)piperidin-1-yl)methyl)-6-(3,5-dichlorophenyl)pyridin-2-yl)oxy)pyridin-2-yl)-1,1-dimethylpiperazin-1-ium chloride], for which the EC50 in test [1] was 79.4 nM. Besides, in test [2], the “furin enzyme pIC50” value was determined as 9.

On to `CC(=O)NCC1CCN(Cc2cc(Oc3ccc(N4C[C@@H]5C[C@H]4CN5CCS(C)(=O)=O)nc3)nc(-c3cc(Cl)cc(Cl)c3)c2)CC1` [Example 183, N-((1-((2-(3,5-Dichlorophenyl)-6-((6-((1S,4S)-5-(2-(methylsulfonyl)ethyl)-2,5-diazabicyclo[2.2.1]heptan-2-yl)pyridin-3-yl)oxy)pyridin-4-yl)methyl)piperidin-4-yl)methyl)acetamide], for which, in test [1], the EC50 is 12.6 nM. In test [2], the IC50 was 0.0251 nM.

Take `CC(=O)NCC1CCN(Cc2cc(Oc3ccc(N4CC5CCC(C4)N5CCC(=O)O)nc3)nc(-c3cc(Cl)cc(Cl)c3)c2)CC1` [Example 185, 3-(3-(5-((4-((4-(Acetamidomethyl)piperidin-1-yl)methyl)-6-(3,5-dichlorophenyl)pyridin-2-yl)oxy)pyridin-2-yl)-3,8-diazabicyclo[3.2.1]octan-8-yl)propanoic acid]: the EC50 in test [1] was 31.6 nM. For the same compound, the “furin enzyme pIC50” value in test [2] was 9.5.

For the compound `CC(=O)NCC1CCN(Cc2cc(Oc3ccc(N4CCN(CCC(=O)O)[C@@H](C)C4)nc3)nc(-c3cc(Cl)cc(Cl)c3)c2)CC1` [Example 186, (S)-3-(4-(5-((4-((4-(acetamidomethyl)piperidin-1-yl)methyl)-6-(3,5-dichlorophenyl)pyridin-2-yl)oxy)pyridin-2-yl)-2-methylpiperazin-1-yl)propanoic acid], the EC50 in test [1] is 39.8 nM. Also, in test [2], the “furin enzyme pIC50” value is on record as 9.1.

For the compound `O=C(O)CC1CCN(Cc2cc(Oc3ccc(N4C[C@@H]5C[C@H]4CN5)nc3)nc(-c3cc(Cl)cc(Cl)c3)c2)CC1` [Example 187, 2-(1-((2-((6-((1S,4S)-2,5-diazabicyclo[2.2.1]heptan-2-yl)pyridin-3-yl)oxy)-6-(3,5-dichlorophenyl)pyridin-4-yl)methyl)piperidin-4-yl)acetic acid], the EC50 in test [1] was 79.4 nM. For the same compound, the IC50 in test [2] was 1.26 nM.

The values above are taken from US11773078B2, “Furin inhibitors” (Glaxosmithkline Intellectual Property Development Limited, priority 2018, dated 2023).
